Assay results reported in ChEMBL document CHEMBL4699575, “Discovery of First-In-Class Potent and Selective Tropomyosin Receptor Kinase Degraders” (J Med Chem, 2020).
One block for each molecule: values may come before it. Calls of active or inactive are those of the source. The rule behind the calls is not given here.

How the values were obtained:
[1] = biological target: High affinity nerve growth factor receptor (Homo sapiens, UniProt P04629); test: Binding affinity to human partial length TRKA expressed in mammalian expression system by kinomescan method
Chain of High affinity nerve growth factor receptor (P04629 whole entry, the tested form may be a part): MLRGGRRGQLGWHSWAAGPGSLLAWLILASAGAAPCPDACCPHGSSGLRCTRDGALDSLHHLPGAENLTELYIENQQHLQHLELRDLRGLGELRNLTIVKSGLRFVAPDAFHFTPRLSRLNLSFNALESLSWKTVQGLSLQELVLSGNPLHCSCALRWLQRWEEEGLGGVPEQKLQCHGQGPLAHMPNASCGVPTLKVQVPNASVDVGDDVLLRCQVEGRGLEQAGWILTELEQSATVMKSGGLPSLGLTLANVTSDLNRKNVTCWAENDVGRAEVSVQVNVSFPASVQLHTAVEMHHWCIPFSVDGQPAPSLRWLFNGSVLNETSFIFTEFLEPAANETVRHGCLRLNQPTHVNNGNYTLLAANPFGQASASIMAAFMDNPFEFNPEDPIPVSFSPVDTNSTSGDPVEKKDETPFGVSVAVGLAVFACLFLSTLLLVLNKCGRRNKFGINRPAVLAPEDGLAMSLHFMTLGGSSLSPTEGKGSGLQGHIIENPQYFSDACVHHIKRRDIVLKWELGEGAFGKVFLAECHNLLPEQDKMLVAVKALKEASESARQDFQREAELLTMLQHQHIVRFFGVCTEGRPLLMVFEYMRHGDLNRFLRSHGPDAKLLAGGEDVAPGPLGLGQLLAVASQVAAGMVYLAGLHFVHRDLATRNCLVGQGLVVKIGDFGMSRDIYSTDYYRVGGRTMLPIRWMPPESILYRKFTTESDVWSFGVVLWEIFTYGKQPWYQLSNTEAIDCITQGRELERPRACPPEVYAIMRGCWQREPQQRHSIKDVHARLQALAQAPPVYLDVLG

KM12 [2] = test: Induction of CRBN-mediated TMP3-TRKA (unknown origin) fusion protein degradation expressed in human KM12 cells at 10 nM for 6 hrs by immunoblot analysis relative to control; type: cell-based
KM12 [3] = test: Induction of CRBN-mediated TMP3-TRKA (unknown origin) fusion protein degradation expressed in human KM12 cells at 1 nM for 6 hrs by immunoblot analysis relative to control; type: cell-based
KM12 [4] = test: Induction of CRBN-mediated TMP3-TRKA (unknown origin) fusion protein degradation expressed in human KM12 cells at 0.1 nM for 6 hrs by immunoblot analysis relative to control; type: cell-based
[5] = biological target: BDNF/NT-3 growth factors receptor (Homo sapiens, UniProt Q16620); test: Binding affinity to human partial length TRKB expressed in mammalian expression system by kinomescan method
Chain of BDNF/NT-3 growth factors receptor (Q16620 whole entry): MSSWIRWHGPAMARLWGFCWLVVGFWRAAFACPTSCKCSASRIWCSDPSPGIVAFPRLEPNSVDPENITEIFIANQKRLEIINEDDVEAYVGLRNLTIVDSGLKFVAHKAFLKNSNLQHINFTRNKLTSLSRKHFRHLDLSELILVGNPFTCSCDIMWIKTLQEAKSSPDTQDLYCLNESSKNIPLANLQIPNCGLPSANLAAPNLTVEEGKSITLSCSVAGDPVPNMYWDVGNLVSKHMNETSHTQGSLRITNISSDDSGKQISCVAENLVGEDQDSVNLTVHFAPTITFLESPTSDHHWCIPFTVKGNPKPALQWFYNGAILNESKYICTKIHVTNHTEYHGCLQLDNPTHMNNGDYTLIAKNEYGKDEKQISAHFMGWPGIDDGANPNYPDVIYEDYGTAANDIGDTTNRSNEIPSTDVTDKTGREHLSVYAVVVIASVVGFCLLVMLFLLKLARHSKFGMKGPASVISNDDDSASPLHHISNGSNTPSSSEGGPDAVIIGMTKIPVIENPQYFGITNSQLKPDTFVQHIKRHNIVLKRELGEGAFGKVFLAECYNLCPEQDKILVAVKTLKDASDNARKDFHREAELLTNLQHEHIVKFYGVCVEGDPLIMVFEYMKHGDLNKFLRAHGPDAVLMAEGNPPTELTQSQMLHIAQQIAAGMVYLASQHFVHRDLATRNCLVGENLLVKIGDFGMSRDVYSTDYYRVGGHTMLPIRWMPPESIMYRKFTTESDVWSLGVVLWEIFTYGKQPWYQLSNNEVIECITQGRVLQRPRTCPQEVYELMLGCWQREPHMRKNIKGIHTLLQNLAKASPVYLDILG

[6] = Binding affinity to human partial length TRKC expressed in mammalian expression system by kinomescan method
KM12 [7] = test: Antiproliferative activity against human KM12 cells assessed as reduction in cell viability measured after 3 days by Celltiter-Glo assay; type: functional, cell-based; settings: KM12, 72 h
[8] = Induction of CRBN-mediated TMP3-TRKA (unknown origin) fusion protein degradation expressed in human KM12 cells for 6 hrs by immunoblot analysis; type: cell-based; settings: KM12, 6 h
[9] = (§1) Induction of CRBN-mediated TMP3-TRKA (unknown origin) fusion protein degradation expressed in human KM12 cells assessed as inhibition of PLC-gamma1 phosphorylation for 6 hrs by immunoblot analysis; type: cell-based; settings: KM12, 6 h
KM12 [10] = test: as §1; type: cell-based
KM12 [11] = test: Induction of CRBN-mediated TMP3-TRKA (unknown origin) fusion protein degradation expressed in human KM12 cells at 30 nM for 6 hrs by immunoblot analysis; type: cell-based
KM12 [12] = test: Effect on GSPT1 expression in human KM12 cells at 0.04 to 30 nM for 6 hrs by immunoblot analysis; type: functional, cell-based; settings: dose nM 0.04-30, time 6.0 hrs
KM12 [13] = test: Induction of CRBN-mediated TMP3-TRKA (unknown origin) fusion protein degradation expressed in human KM12 cells at 10 nM for 0.3 hrs by immunoblot analysis; type: cell-based
KM12 [14] = test: Induction of CRBN-mediated TMP3-TRKA (unknown origin) fusion protein degradation expressed in human KM12 cells assessed as inhibition of PLC-gamma1 phosphorylation at 10 nM for 0.3 hrs by immunoblot analysis; type: cell-based
KM12 [15] = test: Induction of CRBN-mediated TMP3-TRKA (unknown origin) fusion protein degradation expressed in human KM12 cells at 10 nM for 4 hrs by immunoblot analysis; type: cell-based
KM12 [16] = test: Induction of CRBN-mediated TMP3-TRKA (unknown origin) fusion protein degradation expressed in human KM12 cells assessed as inhibition of PLC-gamma1 phosphorylation at 10 nM for 4 hrs by immunoblot analysis; type: cell-based
[17] = biological target: T1, Protein cereblon/High affinity nerve growth factor receptor (Homo sapiens, UniProt P04629+Q96SW2); test: Induction of CRBN-mediated TRKA degradation in human HEL cells for 6 hrs by immunoblot analysis; type: cell-based
Target sequence in this assay (P04629 whole entry, the tested form may be a part): as the sequence (P04629 whole entry, the tested form may be a part) above
Target sequence in this assay (Q96SW2 whole entry, the tested form may be a part): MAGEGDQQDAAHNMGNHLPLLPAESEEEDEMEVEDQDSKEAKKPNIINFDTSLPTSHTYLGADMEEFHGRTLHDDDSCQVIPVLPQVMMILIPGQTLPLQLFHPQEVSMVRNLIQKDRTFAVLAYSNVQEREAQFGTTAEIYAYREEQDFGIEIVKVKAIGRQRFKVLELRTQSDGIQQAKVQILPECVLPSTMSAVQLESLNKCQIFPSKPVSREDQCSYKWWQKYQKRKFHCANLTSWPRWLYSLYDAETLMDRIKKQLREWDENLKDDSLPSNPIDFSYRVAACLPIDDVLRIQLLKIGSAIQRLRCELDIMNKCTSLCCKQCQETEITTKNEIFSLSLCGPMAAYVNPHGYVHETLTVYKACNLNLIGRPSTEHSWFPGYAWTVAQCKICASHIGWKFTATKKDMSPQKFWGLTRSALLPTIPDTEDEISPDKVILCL

KM12 [18] = test: Induction of CRBN-mediated AGBL4-TRKB (unknown origin) fusion protein degradation expressed in human KM12 cells at 0.7 to 500 nM for 6 hrs by immunoblot analysis; type: cell-based; settings: dose nM 0.7-500, time 6.0 hrs
KM12 [19] = test: Induction of CRBN-mediated ETV6-TRKC (unknown origin) fusion protein degradation expressed in human KM12 cells at 0.7 to 500 nM for 6 hrs by immunoblot analysis; type: cell-based; settings: dose nM 0.7-500, time 6.0 hrs
KM12 [20] = test: Induction of CRBN-mediated TMP3-TRKA (unknown origin) fusion protein degradation expressed in human KM12 cells at 10 nM for 6 hrs pretreated with pomalidomide by immunoblot analysis; type: cell-based
KM12 [21] = test: Induction of CRBN-mediated TMP3-TRKA (unknown origin) fusion protein degradation expressed in human KM12 cells at 10 nM for 6 hrs pretreated with MG-132 by immunoblot analysis; type: cell-based
KM12 [22] = test: Induction of CRBN-mediated TMP3-TRKA (unknown origin) fusion protein degradation expressed in human KM12 cells at 10 nM for 6 hrs pretreated with bortezomib by immunoblot analysis; type: cell-based
KM12 [23] = test: Induction of CRBN-mediated TMP3-TRKA (unknown origin) fusion protein degradation expressed in human KM12 cells at 10 nM for 6 hrs pretreated with MLN4924 by immunoblot analysis; type: cell-based
[24] = biological target: T2, Tropomyosin alpha-3 chain/High affinity nerve growth factor receptor (Homo sapiens) (UniProt P04629+P06753); test: Induction of TMP3-TRKA (unknown origin) fusion protein degradation expressed in human KM12 cells transfected with siCRBN-1 at 0.1 to 10 nM for 6 hrs by immunoblot analysis; type: cell-based; settings: dose nM 0.1-10, time 6.0 hrs
T2 sequence (P04629 whole entry, looked up, the tested form may be a part): as the sequence (P04629 whole entry, the tested form may be a part) above
T2 sequence (P06753 whole entry, looked up, the tested form may be a part): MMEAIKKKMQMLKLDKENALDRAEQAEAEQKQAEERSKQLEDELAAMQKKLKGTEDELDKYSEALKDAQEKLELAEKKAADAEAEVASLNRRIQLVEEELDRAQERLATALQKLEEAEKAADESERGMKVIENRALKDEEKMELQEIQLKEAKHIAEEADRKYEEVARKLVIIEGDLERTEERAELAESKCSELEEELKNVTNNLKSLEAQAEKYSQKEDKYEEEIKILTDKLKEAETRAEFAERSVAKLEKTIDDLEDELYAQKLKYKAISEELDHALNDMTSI

[25] = biological target: T2, Tropomyosin alpha-3 chain/High affinity nerve growth factor receptor (Homo sapiens); test: Induction of TMP3-TRKA (unknown origin) fusion protein degradation expressed in human KM12 cells transfected with siCRBN-2 at 0.1 to 10 nM for 6 hrs by immunoblot analysis; type: cell-based; settings: dose nM 0.1-10, time 6.0 hrs
[26] = Cmax in ICR mouse at 10 mg/kg, ip measured for 1 hr; type: ADME, organism-based; parameters: route intraperitoneal, dose 10 mg/kg, time 1 hrs; settings: in vivo
[27] = Plasma concentration in ICR mouse at 10 mg/kg, ip measured at 8 hrs; type: ADME, organism-based
[28] = Half life in ICR mouse at 10 mg/kg, ip measured upto 8 hrs; type: ADME, organism-based; settings: in vivo
KM12 [29] = test: Effect on GSPT1 expression in human KM12 cells at 30 nM for 6 hrs by immunoblot analysis; type: functional, cell-based
[30] = biological target: T1, Protein cereblon/High affinity nerve growth factor receptor; test: Induction of CRBN-mediated TRKA degradation in human HEL cells at 30 nM for 6 hrs by immunoblot analysis; type: cell-based
Target sequence in this assay (P04629 33-796 limits assumed): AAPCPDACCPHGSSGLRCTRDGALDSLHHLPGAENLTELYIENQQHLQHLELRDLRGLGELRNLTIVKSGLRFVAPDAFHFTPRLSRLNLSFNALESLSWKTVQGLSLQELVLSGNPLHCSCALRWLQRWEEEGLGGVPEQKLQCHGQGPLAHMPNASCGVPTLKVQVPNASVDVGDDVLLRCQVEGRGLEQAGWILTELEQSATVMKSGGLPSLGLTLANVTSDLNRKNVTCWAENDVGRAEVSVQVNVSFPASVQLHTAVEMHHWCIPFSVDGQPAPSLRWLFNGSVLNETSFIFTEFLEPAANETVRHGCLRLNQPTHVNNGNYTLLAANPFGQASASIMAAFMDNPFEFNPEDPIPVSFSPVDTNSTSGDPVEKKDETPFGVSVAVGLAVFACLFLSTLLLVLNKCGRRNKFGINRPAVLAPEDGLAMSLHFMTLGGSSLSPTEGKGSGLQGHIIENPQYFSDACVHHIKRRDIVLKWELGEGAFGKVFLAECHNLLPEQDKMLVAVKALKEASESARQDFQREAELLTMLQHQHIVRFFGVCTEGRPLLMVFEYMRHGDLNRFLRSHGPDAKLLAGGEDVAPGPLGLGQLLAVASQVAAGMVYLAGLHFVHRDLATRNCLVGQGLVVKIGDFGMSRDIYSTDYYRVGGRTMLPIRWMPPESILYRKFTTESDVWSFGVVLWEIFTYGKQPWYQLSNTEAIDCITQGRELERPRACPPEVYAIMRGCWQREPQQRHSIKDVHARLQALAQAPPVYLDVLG
Target sequence in this assay (Q96SW2 whole entry partner, the tested form may be a part): as the sequence (Q96SW2 whole entry, the tested form may be a part) above

Kd [1]: 0.81 nM
Kd [5]: 22.7 nM
Kd [6]: 5.4 nM
SMILES: OC1CCN(c2cc(-c3cccc(-c4cnc5ccc(N6CCC[C@@H]6c6cccc(F)c6)nn45)n3)ccn2)CC1
Activity (KM12 [2]): 52%
Activity (KM12 [3]): 16%
Activity (KM12 [4]): 6%
IC50 (KM12 [7]): 16 nM

SMILES: O=C1CCC(N2C(=O)c3cccc(NCCCCCCCC(=O)N4CCN(c5cccc(-c6cnc7ccc(N8CCC[C@@H]8c8cccc(F)c8)nn67)n5)CC4)c3C2=O)C(=O)N1 (some centres undefined)
Activity (KM12 [2]): 83%
Activity (KM12 [3]): 21%
Activity (KM12 [4]): 20%

SMILES: O=C1CCC(N2C(=O)c3cccc(NCCCCC(=O)N4CCN(c5cccc(-c6cnc7ccc(N8CCC[C@@H]8c8cccc(F)c8)nn67)n5)CC4)c3C2=O)C(=O)N1 (some centres undefined)
Activity (KM12 [2]): 93%
Activity (KM12 [3]): 69%
Activity (KM12 [4]): 20%

SMILES: O=C1CCC(N2C(=O)c3cccc(NCCOCCOCCOCCC(=O)N4CCN(c5cccc(-c6cnc7ccc(N8CCC[C@@H]8c8cccc(F)c8)nn67)n5)CC4)c3C2=O)C(=O)N1 (some centres undefined)
Activity (KM12 [2]): 86%
Activity (KM12 [3]): 28%
Activity (KM12 [4]): 22%

SMILES: O=C1CCC(N2C(=O)c3cccc(NCCOCCOCCOCCOCCC(=O)N4CCN(c5cccc(-c6cnc7ccc(N8CCC[C@@H]8c8cccc(F)c8)nn67)n5)CC4)c3C2=O)C(=O)N1 (some centres undefined)
Activity (KM12 [2]): 91%
Activity (KM12 [3]): 40%
Activity (KM12 [4]): 22%

SMILES: O=C1CCC(N2C(=O)c3cccc(NCC(=O)N4CCN(c5cccc(-c6cnc7ccc(N8CCC[C@@H]8c8cccc(F)c8)nn67)n5)CC4)c3C2=O)C(=O)N1 (some centres undefined)
Activity (KM12 [2]): 93%
Activity (KM12 [3]): 45%
Activity (KM12 [4]): 15%

Kd [1]: 2.1 nM
Kd [5]: 112 nM
Kd [6]: 18 nM
DC50 [8]: 0.48 nM
IC50 [9]: 30 nM
DC50 [17]: 1.26 nM
Activity [24]: inactive
Activity [25]: inactive
Cmax [26]: 2050 nM
concentration at 8 h [27]: 14.8 nM
half-life [28]: 54 min
SMILES: O=C1CCC(N2C(=O)c3cccc(NCCCCCC(=O)N4CCN(c5cccc(-c6cnc7ccc(N8CCC[C@@H]8c8cccc(F)c8)nn67)n5)CC4)c3C2=O)C(=O)N1 (some centres undefined)
Activity (KM12 [2]): 96%
Activity (KM12 [3]): 65%
Activity (KM12 [4]): 18%
inhibition (KM12 [10]): Dose-dependent effect
Activity (KM12 [11]): Active
Activity (KM12 [12]): inactive
Activity (KM12 [13]): Active
inhibition (KM12 [14]): Active
Activity (KM12 [15]): Active
inhibition (KM12 [16]): Active
Activity (KM12 [18]): Active
Activity (KM12 [19]): Active
Activity (KM12 [20]): inactive
Activity (KM12 [21]): inactive
Activity (KM12 [22]): inactive
Activity (KM12 [23]): inactive
IC50 (KM12 [7]): 5.4 nM

Kd [1]: 0.88 nM
Kd [5]: 59.8 nM
Kd [6]: 4.8 nM
Activity [30]: inactive
SMILES: CN1C(=O)CCC(N2C(=O)c3cccc(NCCOCCC(=O)N4CCN(c5cccc(-c6cnc7ccc(N8CCC[C@@H]8c8cccc(F)c8)nn67)n5)CC4)c3C2=O)C1=O (some centres undefined)
Activity (KM12 [29]): inactive
IC50 (KM12 [7]): 28 nM

SMILES: O=C1CCC(N2C(=O)c3cccc(NCCC(=O)N4CCN(c5cccc(-c6cnc7ccc(N8CCC[C@@H]8c8cccc(F)c8)nn67)n5)CC4)c3C2=O)C(=O)N1 (some centres undefined)
Activity (KM12 [2]): 65%
Activity (KM12 [3]): 15%
Activity (KM12 [4]): 9%

Kd [1]: 1 nM
Kd [5]: 28 nM
Kd [6]: 4.2 nM
DC50 [8]: 0.36 nM
IC50 [9]: 30 nM
DC50 [17]: 2.23 nM
Cmax [26]: 1640 nM
concentration at 8 h [27]: 12.4 nM
SMILES: O=C1CCC(N2C(=O)c3cccc(NCCOCCC(=O)N4CCN(c5cccc(-c6cnc7ccc(N8CCC[C@@H]8c8cccc(F)c8)nn67)n5)CC4)c3C2=O)C(=O)N1 (some centres undefined)
Activity (KM12 [2]): 96%
Activity (KM12 [3]): 82%
Activity (KM12 [4]): 46%
inhibition (KM12 [10]): Dose-dependent effect
Activity (KM12 [11]): Active
Activity (KM12 [12]): inactive
Activity (KM12 [13]): Active
inhibition (KM12 [14]): Active
Activity (KM12 [15]): Active
inhibition (KM12 [16]): Active
Activity (KM12 [18]): Active
Activity (KM12 [19]): Active
Activity (KM12 [20]): inactive
Activity (KM12 [21]): inactive
Activity (KM12 [22]): inactive
Activity (KM12 [23]): inactive
IC50 (KM12 [7]): 52 nM

Kd [1]: 2.9 nM
Kd [5]: 187 nM
Kd [6]: 24.2 nM
Activity [30]: inactive
SMILES: CN1C(=O)CCC(N2C(=O)c3cccc(NCCCCCC(=O)N4CCN(c5cccc(-c6cnc7ccc(N8CCC[C@@H]8c8cccc(F)c8)nn67)n5)CC4)c3C2=O)C1=O (some centres undefined)
Activity (KM12 [29]): inactive
IC50 (KM12 [7]): 2.9 nM

SMILES: O=C1CCC(N2C(=O)c3cccc(NCCCC(=O)N4CCN(c5cccc(-c6cnc7ccc(N8CCC[C@@H]8c8cccc(F)c8)nn67)n5)CC4)c3C2=O)C(=O)N1 (some centres undefined)
Activity (KM12 [2]): 94%
Activity (KM12 [3]): 63%
Activity (KM12 [4]): 12%

SMILES: O=C1CCC(N2C(=O)c3cccc(NCCOCCOCCC(=O)N4CCN(c5cccc(-c6cnc7ccc(N8CCC[C@@H]8c8cccc(F)c8)nn67)n5)CC4)c3C2=O)C(=O)N1 (some centres undefined)
Activity (KM12 [2]): 95%
Activity (KM12 [3]): 56%
Activity (KM12 [4]): 30%

SMILES: O=C1CCC(N2C(=O)c3cccc(NCCCCCCC(=O)N4CCN(c5cccc(-c6cnc7ccc(N8CCC[C@@H]8c8cccc(F)c8)nn67)n5)CC4)c3C2=O)C(=O)N1 (some centres undefined)
Activity (KM12 [2]): 90%
Activity (KM12 [3]): 23%
Activity (KM12 [4]): 21%
